{"source": "patent US20240415845A1", "about": "“Compositions of Iboga Alkaloids and Methods of Treatment” (priority 2022, published 2024)", "key": {"[1]": {"system": "special operations veterans with combat and/or blast exposure", "assay": "Clinician-rated psychiatric assessments taken together (CAPS-5, MADRS, HAM-A)", "format": "in vivo, human", "method": "To further assess changes in comorbid psychiatric symptoms identified by the models, mean percent reduction, response rate, and remission rate according to the CAPS-5, MADRS and HAM-A (Table 1) were calculated. Response on the CAPS-5, MADRS, and HAM-A was defined as a reduction of at least 10 points (Mitchell, J. M. et al., Nat. Med. 27, 1025-1033(2021)), 50% (Leucht, S. et al., J. Affect. Disord. 210, 287-293 (2017)), and 50% (McIntyre, A. et al., Depress. Anxiety 24, 487-494 (2007)), respectively; remission as loss of diagnosis and a total score below 12 (Mitchell, J. M. et al. supra), <8 (Leucht, S. et al. supra), and <8(McIntyre, A. et al., supra), respectively. One participant's baseline scores met criteria for remission in all three scales and so were excluded from the calculation of response and remission rates, leaving 29 participants in these specific analyses.\nThe results were similar, with remission rates at one-month follow up of at least 67% (Table 1-3 in Example 1). To determine if the participants with more severe TBI history may be biasing results, a sensitivity analysis excluding the participants with non-mild TBI; results was done, again with the results largely unchanged (Table 1-4 in Example 1), with remission rates at one-month follow up of at least 85%."}, "[2]": {"system": "special operations veterans with combat and/or blast exposure", "assay": "World Health Organization Disability Assessment Schedule 2.0 (WHODAS 2.0)", "format": "in vivo, human", "conditions": "for WHODAS 2.0 Total, effect size D (Cohen's D) / WHODAS 2.0 Total score: all participants; for WHODAS 2.0 Total score: baseline 30.2 ± 14.7, mean ± SD; for WHODAS 2.0 Self Care subscale: baseline 5.2% ± 9.2%; for WHODAS 2.0 Mobility subscale: baseline 14.7% ± 15.7%; for WHODAS 2.0 Interpersonal subscale: baseline 32.3% ± 20.4; for WHODAS 2.0 Community Participation subscale: baseline 35.6% ± 21.1%; for WHODAS 2.0 Cognition subscale: baseline 36.1% ± 14.6%; for WHODAS 2.0 Life Activities subscale: baseline 41.1% ± 24.8%", "source_text": "The pre-specified primary outcome was change in the World Health Organization Disability Assessment Schedule 2.0 (WHODAS) (Gold L. H. et al., J. Am. Acad. Psychiatry Law 42, 9 (2014)) from baseline to post-treatment, with change from baseline to the one-month follow-up a secondary outcome. Additional pre-specified secondary outcomes included post-treatment changes on the Clinician Administered PTSD Scale (CAPS-5; Weathers, F. W. et al., Psychol. Assess., 30, 383-395 (2018)), Montgomery-Åsberg Depression Rating Scale (MADRS; Montgomery, S. A., Br. J. Psychiatry J. Ment. Sci., 134, 382-389 (1979)) and the Hamilton-Anxiety Rating Scale (HAM-A; Bruss, G. S., et al., Psychiatry Res., 53, 191-202 (1994)). […] An additional dose of magnesium was administered approximately 12 hours later. To assess the significance of post-treatment changes, linear mixed effects (LME) models were used for each outcome measure. False Discovery Rate (FDR; Benjamini, Y. et al., J. R. Stat. Soc. Ser. B Methodol., 57, 289-300 (1995)) was applied to correct for multiple comparisons.\nWith subjects in the fasting state, an intravenous infusion of 1 gram of magnesium sulfate was administered 1-2 hours prior to treatment. […] Medical staff (MD, RN, or EMT) were onsite at a ratio of at least 1 staff per 2 patients throughout treatment for monitoring and management, but no specific coaching or psychological support was provided during treatment.\nPost treatment, each subject was assessed four days after treatment, one month after treatment, and, if willing, one year after treatment. The post-treatment assessments conducted at four days and at one month after treatment included neuropsychological testing, measures of PTSD, depression, anxiety, mystical experiences, functional imaging and EEG. Post-treatment assessments conducted at one year after treatment included PTSD, depression, and anxiety measures.\nWorld Health Organization Disability Assessment Scale 2.0 (WHODAS 2.0) was used as a measure of function. WHODAS was used to assess the impact of health conditions across six life domains (cognition, mobility, self-care, interpersonal, life activities, and community participation) and it is sensitive to change over time (Gold, L. H., J. Am. Acad. Psychiatry Law 42, 9 (2014). Each item in the assessment is rated on a scale ranging from no problems to extreme problems (Üstün, T. B. et al., Measuring health and disability: Manual for WHO disability assessment schedule WHODAS 2.0. (World Health Organization, 2010)). To capture inter-individual variability in disability the WHODAS complex scoring method was used. Raw scores were converted to a metric ranging from 0(no disability) to 100 (full disability), by calculating the ratio of the participant's score relative to the maximum possible score in each domain as well as to the total score (Id.). A score of 20%-39% was considered mild, 40%-59% was moderate, 60%-79% was moderate-severe and 80%-100% was severe. Scores from baseline were compared to scores from one-month post treatment.\nA measure of disability for health and disability on life functions is the World Health Organization Disability Assessment Schedule 2.0 (WHODAS). The items are designed to be sensitive to change due to a treatment, and the measure assesses disability over the past 30 days. The items measured are cognition, self-care, mobility, getting along. life activity, and participation in society. The WHODAS measure gives a rating of 1 for no disability, 2 for mild disability and 3 for moderate disability. FIG. 7A is a graph showing results from the World Health Organization Disability Assessment Scale 2.0 (WHODAS 2.0) assessment for each subject at baseline (prior to treatment), about one week after treatment, and one month after treatment. The dashed line represents the means of the individual scores. FIG. 7B is a bar graph of self-reported disability using the WHODAS total scores at baseline and one-month after treatment."}, "[3]": {"conditions": "in vivo; cited from earlier work"}, "[4]": {"conditions": "one-week and one-month post, 29 participants"}}, "data": [{"molecule": "CCC1CC2CC3c4[nH]c5ccc(OC)cc5c4CCN(C2)C13", "note": "(stereo not drawn) [ibogaine, Ibogaine]", "values": [{"measurement": "remission rates on CAPS-5, MADRS and HAM-A", "setting": "[1]; one-month follow up, excluding participants with non-mild TBI", "value": "at least 85%"}, {"measurement": "remission rates on CAPS-5, MADRS and HAM-A", "setting": "[1]; one-month follow up, subgroups meeting criteria for the disorder assessed by the scale", "value": "at least 67%"}, {"measurement": "remission rates on CAPS-5, MADRS and HAM-A", "setting": "[1]; [4]", "value": "at least 83%"}, {"measurement": "response rates on CAPS-5, MADRS and HAM-A", "setting": "[1]; [4]", "value": "at least 93%"}, {"measurement": "mean percent reductions on CAPS-5, MADRS and HAM-A", "setting": "[1]; one-week and one-month post, all participants", "value": "at least 81%"}, {"measurement": "remission rates for comorbid PTSD, depression, and anxiety", "setting": "[1]; secondary analyses", "value": "around 80%"}, {"measurement": "WHODAS 2.0 Cognition subscale, effect size D", "setting": "[2]; baseline vs one-month", "value": 2.38}, {"measurement": "WHODAS 2.0 Community Participation subscale, effect size D", "setting": "[2]; baseline vs one-month", "value": 1.78}, {"measurement": "WHODAS 2.0 Interpersonal subscale, effect size D", "setting": "[2]; baseline vs one-month", "value": 1.63}, {"measurement": "WHODAS 2.0 Life Activities subscale, effect size D", "setting": "[2]; baseline vs one-month", "value": 1.44}, {"measurement": "WHODAS 2.0 Mobility subscale, effect size D", "setting": "[2]; baseline vs one-month", "value": 0.83}, {"measurement": "WHODAS 2.0 Self Care subscale, effect size D", "setting": "[2]; baseline vs one-month", "value": 0.51}, {"measurement": "WHODAS 2.0 Total, effect size D (Cohen's D)", "setting": "[2]; baseline vs one-month post", "value": 2.20}, {"measurement": "WHODAS 2.0 Total, effect size D (Cohen's D)", "setting": "[2]; baseline vs one-week post", "value": 0.74}, {"measurement": "WHODAS 2.0 Cognition subscale, effect size D", "setting": "[2]; baseline vs post-treatment", "value": 0.96}, {"measurement": "WHODAS 2.0 Community Participation subscale, effect size D", "setting": "[2]; baseline vs post-treatment", "value": 0.53}, {"measurement": "WHODAS 2.0 Interpersonal subscale, effect size D", "setting": "[2]; baseline vs post-treatment", "value": 0.60}, {"measurement": "WHODAS 2.0 Life Activities subscale, effect size D", "setting": "[2]; baseline vs post-treatment", "value": 0.48}, {"measurement": "WHODAS 2.0 Mobility subscale, effect size D", "setting": "[2]; baseline vs post-treatment", "value": 0.53}, {"measurement": "WHODAS 2.0 Self Care subscale, effect size D", "setting": "[2]; baseline vs post-treatment", "value": 0.37}, {"measurement": "self-reported disability WHODAS total score (rating 1 no, 2 mild, 3 moderate disability)", "setting": "[2]; one-month post treatment, baseline about 2.5 (FIG. 7B)", "value": "over 1"}, {"measurement": "WHODAS 2.0 Total score", "setting": "[2]; one-month post", "value": 5.1}, {"measurement": "WHODAS 2.0 Self Care subscale", "setting": "[2]; one-month", "value": "1.0% ±"}, {"measurement": "WHODAS 2.0 Mobility subscale", "setting": "[2]; one-month", "value": "1.3% ±"}, {"measurement": "WHODAS 2.0 Interpersonal subscale", "setting": "[2]; one-month", "value": "4.8% ±"}, {"measurement": "WHODAS 2.0 Community Participation subscale", "setting": "[2]; one-month", "value": "5.9% ±"}, {"measurement": "WHODAS 2.0 Cognition subscale", "setting": "[2]; one-month", "value": "5.0% ±"}, {"measurement": "WHODAS 2.0 Life Activities subscale", "setting": "[2]; one-month", "value": "9.1% ±"}, {"measurement": "WHODAS 2.0 Total score", "setting": "[2]; one-week post", "value": 19.9}, {"measurement": "WHODAS 2.0 Self Care subscale", "setting": "[2]; post-treatment", "value": "1.9% ±"}, {"measurement": "WHODAS 2.0 Mobility subscale", "setting": "[2]; post-treatment", "value": "7.2% ±"}, {"measurement": "WHODAS 2.0 Interpersonal subscale", "setting": "[2]; post-treatment", "value": "21.7% ±"}, {"measurement": "WHODAS 2.0 Community Participation subscale", "setting": "[2]; post-treatment", "value": "24.7% ±"}, {"measurement": "WHODAS 2.0 Cognition subscale", "setting": "[2]; post-treatment", "value": "19.2% ±"}, {"measurement": "WHODAS 2.0 Life Activities subscale", "setting": "[2]; post-treatment", "value": "31.6% ±"}, {"measurement": "people who may suffer from cardiac arrest when treated", "setting": "[3]", "value": "Approximately 1 in 300"}]}]}
